Molecules are shown by their SMILES.

The target of the test is T1, KRAS G12C 1-169, his-tagged protein, GDP-loaded (Homo sapiens, UniProt P01116, G12C).
T1 construct: KRAS G12C 1-169, his-tagged protein, GDP-loaded
Kind of test: Biochemical assay: covalent modification of KRAS G12C measured by mass spectrometry (RapidFire/TOF or Q-Exactive). Type of test: binding. Particulars: covalent binding to (modification of) KRAS G12C after a ten minute incubation period. In outline: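 Intact-mass readout (TOF or Q-Exactive, charge-envelope deconvolution) gives percent covalent adduct from modified and unmodified species. Compound at 10, 30 or 100 μM was incubated at room temperature for 10 min to 24 h with 2 μM or 0.5 μM GDP-bound KRAS G12C 1-169 in Hepes/NaCl/MgCl2 buffer, then acid-quenched.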
For the molecule `C=CC(=O)N1C[C@H](C)N(c2nc(NC(C)=O)nc3c(F)c(-c4c(C)ccc5[nH]nc(C6CC6)c45)c(Cl)cc23)C[C@H]1C` [Compound 259, N-(4-((2S,5R)-4-acryloyl-2,5-dimethylpiperazin-1-yl)-6-chloro-7-(3-cyclopropyl-5-methyl-1H-indazol-4-yl)-8-fluoroquinazolin-2-yl)acetamide], the Binding % result is listed as “++ (++ indicates binding activity from 50 to 80%)”.

For `C=CC(=O)N1C[C@H](C)N(c2nc(Nc3cnn(C)c3)nc3c(F)c(-c4c(C)ccc5[nH]nc(N)c45)c(Cl)cc23)C[C@H]1C` [Compound 68, 1-((2R,5S)-4-(7-(3-amino-5-methyl-1H-indazol-4-yl)-6-chloro-8-fluoro-2-(1-methyl-1H-pyrazol-4-ylamino)quinazolin-4-yl)-2,5-dimethylpiperazin-1-yl)prop-2-en-1-one], the Binding % result is given as “+++ (+++ indicates binding activity greater than 80%)”.

On to `C=CC(=O)N1C[C@H](C)N(c2nc(N3CC(N(C)C)C3)nc3c(F)c(-c4c(C)ccc5[nH]nc(NCC)c45)c(Cl)cc23)C[C@H]1C` [Compound 46, 1-((2R,5S)-4-(6-chloro-2-(3-(dimethylamino)azetidin-1-yl)-7-(3-(ethylamino)-5-methyl-1H-indazol-4-yl)-8-fluoroquinazolin-4-yl)-2,5-dimethylpiperazin-1-yl)prop-2-en-1-one], for which the Binding % entry is on record as “++ (++ indicates binding activity from 50 to 80%)”.

For the molecule `C=CC(=O)N1C[C@H](C)N(c2nc(NCCc3ncccn3)nc3c(F)c(-c4c(C)ccc5onc(N)c45)c(Cl)cc23)C[C@H]1C` [Compound 91, 1-((2R,5S)-4-(7-(3-amino-5-methylbenzo[d]isoxazol-4-yl)-6-chloro-8-fluoro-2-(2-(pyrimidin-2-yl)ethylamino)quinazo-lin-4-yl)-2,5-dimethylpiperazin-1-yl)prop-2-en-1-one], the Binding % result is on record as “+++ (+++ indicates binding activity greater than 80%)”.

On to `C=CC(=O)N1C[C@H](C)N(c2nc(N3CC(N(C)C)C3)nc3c(F)c(-c4c(C)ccc5ccn(C)c45)c(Cl)cc23)C[C@H]1C` [Compound 203, 1-((2R,5S)-4-((R)-6 chloro-7-(1,6-dimethyl-1H-indol-7-yl)-2-(3-(dimethylamino)azetidin-1-yl)-8-fluoroquinazolin-4-yl)-2,5-dimethylpiperazin-1-yl)prop-2-en-1-one], for which the Binding % entry is on record as “+++ (+++ indicates binding activity greater than 80%)”.

Regarding `C=CC(=O)N1C[C@H](C)N(c2nc(OC[C@H]3CCCN3C)nc3c(F)c(-c4c(C)ccc5[nH]nc(C)c45)c(Cl)cc23)C[C@H]1C` [Compound 161, 1-((2R,5S)-4-(6-chloro-7-(3,5-dimethyl-1H-indazol-4-yl)-8-fluoro-2-(((R)-1-methylpyrrolidin-2-yl)methoxy)quinazolin-4-yl)-2,5-dimethylpiperazin-1-yl)prop-2-en-1-one], the Binding % result is reported as “+++ (+++ indicates binding activity greater than 80%)”.

As to `C=CC(=O)N1C[C@H](C)N(c2nc(OCCN3CCC(F)(F)C3)nc3c(F)c(-c4c(C)ccc5cnn(C)c45)c(Cl)cc23)C[C@H]1C` (atropisomer, axis not shown) [Compound 135, 1-((2R,5S)-4-((S)-6-chloro-2-(2-(3,3-difluoropyrrolidin-1-yl)ethoxy)-7-(1,6-dimethyl-1H-indazol-7-yl)-8-fluoroquinazolin-4-yl)-2,5-dimethylpiperazin-1-yl)prop-2-en-1-one], the Binding % entry was “+ (+ indicates binding activity greater than 0% and up to 50%)”.

For `C=CC(=O)N1C[C@H](C)N(c2nc(N3CC(N(C)C)C3)nc3c(F)c(-c4c(C)ccc5nc(C)[nH]c45)c(Cl)cc23)C[C@H]1C` [Compound 52, 1-((2R,5S)-4-(6-chloro-7-(2,6-dimethyl-1H-benzo[d]imidazol-7-yl)-2-(3-(dimethylamino)azetidin-1-yl)-8-fluoroquinazolin-4-yl)-2,5-dimethylpiperazin-1-yl)prop-2-en-1-one], the Binding % result is on record as “++ (++ indicates binding activity from 50 to 80%)”.

The values above are taken from patent publication US11377441B2, “Covalent inhibitors of KRAS” (Araxes Pharma LLC, priority 2017, dated 2022).
